This is an account of results in patent US20050136015A1, “Topical use of halosalicylic acid derivatives” (priority 2003, published 2005).

The nature of series [1]: Skin irritation (PII) of test formulation. It counts as in vivo.
Series [2] deals with Candida albicans. The experiment in a line: Zone of Inhibition Test. It counts as cell-based. The note with it: C. albicans, 1000 μl, isopropyl palmitate solvent.
Series [3] has as its system Staphylococcus aureus. Briefly: Zone of Inhibition Test. It counts as cell-based. The conditions noted are these: S. aureus, 1000 μl, isopropyl palmitate solvent.
Series [4] deals with Aspergillus niger. Briefly: Zone of Inhibition Test. It counts as cell-based. The note with it: A. niger, 1000 μl, isopropyl palmitate solvent.
For series [5], the system named is Staphylococcus epidermidis. Briefly: Zone of Inhibition Test. It counts as cell-based. The note with it: S. epidermidis, 1000 μl, isopropyl palmitate solvent.
The test system of series [6] is Escherichia coli. The experiment in a line: Zone of Inhibition Test. It counts as cell-based. The note with it: E. coli, 1000 μl, isopropyl palmitate solvent.
Series [7] has as its system Propionibacterium acnes. The experiment in a line: Zone of Inhibition Test. It counts as cell-based. The conditions noted are these: for Diameter of Zone of Inhibition: P. acnes, 1000 μl, isopropyl palmitate solvent.
Series [8] relates to skin surface. The experiment in a line: Exfoliation (desquamation) activity, D-SQUAME skin surface sampling discs. The conditions noted are these: for D-SQUAME Score: scoring scale 0 to 5. It counts as in vivo. The text has this: D-SQUAME skin surface sampling Discs (CuDerm Corporation) were employed. The disc was applied to a clean, dry skin surface and pressed firmly for a few seconds using the thumb or fingertips. The disc was then transferred to a black square on the storage card. The disc was viewed at an angle with strong light and compared with 5 reference patterns provided by CuDerm Corporation. Very dry skin produces a heavy amount of scaling similar to pattern 5. Normal skin produces a few areas of small clumps of cells or a fine even single layer of cells. The scoring scale employed was as follows: [table] […] The vehicle was tested, as a control. The vehicle (ANEW All-In-One SPF-15 Self-Adjusting Perfecting Creme base without the glycolic acid) employed was the same in all cases, only the test compound(s) differed.

The subject of series [9] is Pseudomonas aeruginosa. Briefly: Zone of Inhibition Test. The note with it: P. aeruginosa, 1000 μl, isopropyl palmitate solvent. It counts as cell-based.
Series [10] has as its system Salmonella typhimarium. The conditions noted are these: literature report; cited from earlier work.
Series [11] deals with all of the test microorganisms. Briefly: MLC test, summary over all test microorganisms. It counts as cell-based. The note with it: against all of the test microorganisms of Table 1.
Setting [12] is: 0.5% active in ANEW creme base vehicle without glycolic acid.
[13] abbreviates: 0.5% active in ANEW creme base vehicle.

Consider `O=C(O)c1cc(Cl)ccc1O` [5-Chlorosalicylic Acid, 5-chlorosalicylic acid], for which the “PII (skin irritation)” value in [1] (setting [12]) turned out to be 0.00. Further, the “Diameter of Zone of Inhibition” value in series [2] (0.5%) was determined as 0 Millimeters; in series [2] (1.0%) it was 2.96 Millimeters; in [3] (0.5%) it was 0 Millimeters; in series [3] (1.0%), 3.04 Millimeters; in series [4] (0.5%), 0 Millimeters; in series [4] (1.0%), 3.38 Millimeters. For the same compound, the “Diameter of Zone of Inhibition” value in [5] (0.5%) amounted to 3.59 Millimeters; in series [5] (1.0%), 13.15 Millimeters; in series [6] (0.5%), 0 Millimeters; in series [6] (1.0%), 0 Millimeters; in [7] (0.5%) it was 4.87 Millimeters; in series [7] (1.0%), 17.62 Millimeters. Also, the “Diameter of Zone of Inhibition” value in [9] (0.5%) and in [9] (1.0%) was 0 Millimeters each time. In addition, in [7] (results of Tables 2 through 4), the “Activity against Propionibacterium acnes compared with salicylic acid” value is on record as “more active”. Also, the “D-SQUAME Score” value in [8] (setting [13]) was determined as 2.44. Also, the “Exfoliation activity compared with 0.5% salicylic acid” value in series [8] (D-SQUAME, Table 5) is given as “significantly more exfoliating”. Also, the “Exfoliation activity compared with 1.0% salicylic acid” value in series [8] (D-SQUAME, Table 5) is “equivalent in exfoliation activity”. Moreover, the “Exfoliation activity compared with 2.0% salicylic acid” value in series [8] (D-SQUAME, Table 5) is recorded as “equivalent in exfoliation activity”. Also, the “Exfoliation activity compared with the base vehicle (containing no CLSA or SA)” value in series [8] (D-SQUAME, Table 5) was “significantly more exfoliating”. In series [8] (D-SQUAME, Table 5), the “Exfoliation activity compared with the combination of 0.5% chlorosalicylic acid/0.5% salicylic acid” value is listed as “equivalent in exfoliation activity”. Moreover, the Mutagenic activity result in [10] is reported as “non-mutagenic”.

As for `O=C(O)c1ccccc1O` [Salicylic Acid, salicylic acid], the “PII (skin irritation)” value in [1] (setting [12]), in series [1] (1% active in ANEW creme base vehicle without glycolic acid) and in series [1] (2.% active in ANEW creme base vehicle without glycolic acid) was 0.00 each time. The “Diameter of Zone of Inhibition” value in series [2] (0.83%) came to 4.6 Millimeters; in [2] (1.66%), 11.16 Millimeters; in series [3] (0.83%), 0 Millimeters; in series [3] (1.66%), 6.38 Millimeters; in [4] (0.83%), 0 Millimeters; in series [4] (1.66%) it was 6.72 Millimeters. The “Diameter of Zone of Inhibition” value in series [5] (0.83%) stood at 4.5 Millimeters; in [5] (1.66%), 13.62 Millimeters; in series [6] (0.83%), 0 Millimeters; in series [6] (1.66%), 3.67 Millimeters; in series [7] (0.83%), 0 Millimeters; in series [7] (1.66%) it was 15.39 Millimeters. Besides, the “Diameter of Zone of Inhibition” value in [9] (0.83%) and in [9] (1.66%) was 0 Millimeters throughout. For the same compound, the “Bacteriocidal activity (in words)” value in series [11] is listed as “bacteriocidal against all of the test microorganisms”. Further, the “D-SQUAME Score” value is recorded as 1.97 in series [8] (setting [13]), 2.28 in series [8] (1% active in ANEW creme base vehicle) and 2.56 in series [8] (2.% active in ANEW creme base vehicle).
